Where two headings read alike, the source gives them in different places.
Legend:
BRD4-1 = BRD4-1 (Homo sapiens (Human), UniProt O60885); test: Bromodomain and Extraterminal Domain (BET) binding assay, BRD4-1; conditions: histone H4 peptide (1-21) K5/8/12/16Ac-biotin ligand; 20 nM protein, 20 nM ligand
Method: (§1) The bromodomain binding assays were performed by Reaction Biology Corp., Malvern, Pa., USA (www.reactionbiology.com). The BET binding assays were conducted in 384 well microplates in assay buffer (50 mM HEPES-HCl, pH 7.5, 100 mM NaCl, 1 mg/ml BSA, 0.05% CHAPS, and 0.5% DMSO) with compounds added as DMSO stocks at a single concentration or with 10-point dose response titrations. BET protein or assay buffer were delivered to the appropriate wells of the microplate. Test compound was then delivered by acoustic technology via a Labcyte Echo550 liquid handler. The microplate was centrifuged for 5 min and pre-incubated for 30 min at RT with gentle shaking. The ligand (histone H4 peptide (1-21) K5/8/12/16Ac-biotin) was delivered and the microplate was again centrifuged for 5 min and allowed to incubate for 30 min at RT with gentle shaking. Donor beads were then added in the absence of light and the microplate was centrifuged and gently shaken. After 5 min, acceptor beads were added in the absence of light and the microplate was centrifuged and gently shaken in the dark for 60 min. The microplate was read using a Perkin Elmer EnSpire Alpha plate reader (λ Ex/λ Em=680/520-620 nm). Percent inhibition was calculated relative to positive and negative controls on a per plate basis. For titration experiments, IC50 values were determined by fitting the percent inhibition versus compound concentration.

[1] = tested on: IEC-6 rat intestinal epithelial cell line; test: Cell viability assay in IEC-6 cells (resazurin), potential toxicity to non-cancerous cells; type: cell-based
Method: The effects of test compounds were also studied in the IEC-6 rat intestinal epithelial cell line to assess potential toxicity to non-cancerous cells. The cells were harvested during the logarithmic growth period and counted. In Protocol A, cells were seeded at a count of 3000 cells per well/100 μl in a 96-well plate. After seeding, cells were incubated at 37° C. 5% CO2 for 24 hr. Cells were treated with test compounds at 8 concentrations within a desired concentration range (e.g. 5 nM-10 μM) for generation of dose response curves by preparing serial dilutions of the test compound in DMSO which were further diluted with culture medium and then added to each well. The plate was further incubated for another 96 hrs in humidified incubator at 37° C. and 5% CO2. The assay was terminated by addition of resazurin (#R7017, Sigma). The plate was incubated for 4 hr at 37° C. 5% CO2 and fluorescence was measured using excitation and emission wavelengths of 535 and 590 nm, respectively. Cell viability data were plotted using GraphPad Prism (GraphPad Software, Inc., San Diego, Calif.). In addition, a nonlinear regression model with a sigmoidal dose response and variable slope within GraphPad Prism was used to calculate the IC50 value of individual test compounds. Protocol B was the same as Protocol A except that cells were seeded at a count of 4000 cells per well/100 μl in a 96-well plate, and the incubation with test compound was for 48 hrs instead of 96 hrs.

BRD4-2 = BRD4-2 (Homo sapiens (Human), UniProt O60885); test: Bromodomain and Extraterminal Domain (BET) binding assay, BRD4-2; conditions: histone H4 peptide (1-21) K5/8/12/16Ac-biotin ligand; 130 nM protein, 70 nM ligand
Method: as §1

[2] = tested on: MV-4-11 human acute myeloid leukemia cell line; test: Cell viability assay in MV-4-11 cells (Cell Titer-Glo); type: cell-based; conditions: MV4-11, 72 hrs incubation
Method: The effects of test compounds were studied in a cell viability assay in the MV-4-11 human acute myeloid leukemia cell line. The cells were harvested during the logarithmic growth period and counted. Cells were seeded at a count of 15000 cells per well/100 μl. After seeding, cells were incubated at 37° C. 5% CO2 for 1 hr. Cells were treated with test compounds at 8 concentrations within a desired concentration range (e.g. 5 nM-10 μM) for generation of dose response curves by preparing serial dilutions of the test compound in DMSO which were further diluted with culture medium and then added to each well. The plate was further incubated for another 72 hrs in a humidified incubator at 37° C. and 5% CO2. The assay was terminated by addition of Cell Titer-Glo reagent (Promega, Madison, Wis.) at ¼ the volume of total medium per well. Contents were mixed, the plate was incubated for 10 min at room temperature and luminescence was measured. Cell viability data were plotted using GraphPad Prism (GraphPad Software, Inc., San Diego, Calif.). In addition, a nonlinear regression model with a sigmoidal dose response and variable slope within GraphPad Prism was used to calculate the IC50 value of individual test compounds.

[3] = Protocol A: 3000 cells per well, 96 hrs incubation with test compound, read-out: Protocol A IC50 (μM), cell viability in IEC-6 cells
[4] = Protocol B: 4000 cells per well, 48 hrs incubation with test compound, read-out: Protocol B IC50 (μM), cell viability in IEC-6 cells

| SMILES | IC50 (BRD4-1) [nM] | IC50 (BRD4-2) [nM] | IC50 [2] [µM] | IC50 [1, 3] [µM] | IC50 [1, 4] [µM] |
| --- | --- | --- | --- | --- | --- |
| CCS(=O)(=O)Nc1ccc(Oc2c(C)cccc2C)c(-c2cn(C)c(=O)c3sc(-c4nnc(C)o4)cc23)c1 [Compound 4, N-(4-(2,6-dimethylphenoxy)-3-(6-methyl-2-(5-methyl-1,3,4-oxadiazol-2-yl)-7-oxo-6,7-dihydrothieno[2,3-c]pyridin-4-yl)phenyl)ethanesulfonamide] | 197 | 6 | 0.115 | 0.048 | 0.283 |
| Cc1noc(-c2cc3c(-c4cc(C(C)(C)O)ccc4Oc4ccc(F)cc4F)cn(C)c(=O)c3s2)n1 [Compound 8, 4-(2-(2,4-difluorophenoxy)-5-(2-hydroxypropan-2-yl)phenyl)-6-methyl-2-(3-methyl-1,2,4-oxadiazol-5-yl)thieno[2,3-c]pyridin-7(6H)-one] | 94 | 74 | 0.379 | 0.156 | 0.521 |
| Cn1cc(-c2cc(C(C)(C)O)ccc2Oc2ccc(F)cc2F)c2cc(C(=O)NC3CC3)sc2c1=O [Compound 145, N-cyclopropyl-4-(2-(2,4-difluorophenoxy)-5-(2-hydroxypropan-2-yl)phenyl)-6-methyl-7-oxo-6,7-dihydrothieno[2,3-c]pyridine-2-carboxamide] | 601 | 7 | 0.245 |  | 0.691 |
| Cc1nnc(-c2cc3c(-c4cc(C(C)(C)O)ccc4Oc4c(C)cc(F)cc4C)cn(C)c(=O)c3s2)o1 [Compound 13, 4-(2-(4-fluoro-2,6-dimethylphenoxy)-5-(2-hydroxypropan-2-yl)phenyl)-6-methyl-2-(5-methyl-1,3,4-oxadiazol-2-yl)thieno[2,3-c]pyridin-7(6H)-one] | 4940 | 9 | 0.54 |  | 2.5 |
| Cc1cc(F)cc(C)c1Oc1ccc(C(C)(C)O)cc1-c1cn(C)c(=O)c2ccsc12 [Compound 2.1, 7-(2-(4-fluoro-2,6-dimethylphenoxy)-5-(2-hydroxypropan-2-yl)phenyl)-5-methylthieno[3,2-c]pyridin-4(5H)-one] | 2500 | 19.8 | 0.47 |  |  |
| Cn1cc(-c2cc(C(C)(C)O)ccc2Oc2ccc(F)cc2F)c2cc(C(=O)N3CCCC(F)(F)C3)sc2c1=O [Compound 23, 4-(2-(2,4-difluorophenoxy)-5-(2-hydroxypropan-2-yl)phenyl)-2-(3,3-difluoropiperidine-1-carbonyl)-6-methylthieno[2,3-c]pyridin-7(6H)-one] | 1120 | 18 | 0.768 |  | 1.62 |

Stronger by IC50 (BRD4-2), values ahead:

| IC50 (BRD4-1) [nM] | IC50 (BRD4-2) [nM] | IC50 [2] [µM] | SMILES | IC50 [1, 3] [µM] | IC50 [1, 4] [µM] |
| --- | --- | --- | --- | --- | --- |
| 10100 | 2 | 0.131 | CCNC(=O)c1cc2c(-c3cc(C(C)(C)O)ccc3Oc3c(C)cc(F)cc3C)cn(C)c(=O)c2s1 [Compound 1, N-ethyl-4-(2-(4-fluoro-2,6-dimethylphenoxy)-5-(2-hydroxypropan-2-yl)phenyl)-6-methyl-7-oxo-6,7-dihydrothieno[2,3-c]pyridine-2-carboxamide] | 0.266 | 4.91 |
| 2050 | < 2 | 0.074 | CCNC(=O)c1cc2c(-c3cc(C(C)(C)O)ccc3Oc3ccc(F)cc3F)cn(C)c(=O)c2s1 [Compound 3, 4-(2-(2,4-difluorophenoxy)-5-(2-hydroxypropan-2-yl)phenyl)-N-ethyl-6-methyl-7-oxo-6,7-dihydrothieno[2,3-c]pyridine-2-carboxamide] | 0.089 |  |
| 2920 | 2 | 0.084 | CCNC(=O)c1cc2c(=O)n(C)cc(-c3cc(C(C)(C)O)ccc3Oc3c(C)cc(F)cc3C)c2s1 [Compound 146, N-ethyl-7-(2-(4-fluoro-2,6-dimethylphenoxy)-5-(2-hydroxypropan-2-yl)phenyl)-5-methyl-4-oxo-4,5-dihydrothieno[3,2-c]pyridine-2-carboxamide] |  | 0.729 |
| 299 | 1.8 | 0.047 | CCNC(=O)c1cc2c(-c3cc(NS(=O)(=O)CC)ccc3Oc3c(C)cccc3C)cn(C)c(=O)c2s1 [Compound 147, 4-(2-(2,6-dimethylphenoxy)-5-(ethylsulfonamido)phenyl)-N-ethyl-6-methyl-7-oxo-6,7-dihydrothieno[2,3-c]pyridine-2-carboxamide] |  | 1.77 |
|  | 1 | 0.111 | CCNC(=O)c1cc2c(-c3cc(C(C)(C)O)ccc3Oc3ccc(Cl)cc3Cl)cn(C)c(=O)c2s1 [Compound 2, 4-(2-(2,4-dichlorophenoxy)-5-(2-hydroxypropan-2-yl)phenyl)-N-ethyl-6-methyl-7-oxo-6,7-dihydrothieno[2,3-c]pyridine-2-carboxamide] | 0.061 |  |
| 111 | 3.4 | 0.126 | CCS(=O)(=O)Nc1ccc(Oc2c(C)cc(F)cc2C)c(-c2cn(C)c(=O)c3sc(-c4nnc(C)o4)cc23)c1 [Compound 10, N-(4-(4-fluoro-2,6-dimethylphenoxy)-3-(6-methyl-2-(5-methyl-1,3,4-oxadiazol-2-yl)-7-oxo-6,7-dihydrothieno[2,3-c]pyridin-4-yl)phenyl)ethanesulfonamide] |  | 0.78 |

From patent US11584756B2, “Heterocyclic compounds as BET inhibitors” (NUVATION BIO INC., priority 2019, dated 2023)
